Key:
Human recombinant PDE4B2 = target: T1, Human recombinant PDE4B2 (Homo sapiens, UniProt Q07343); test: Inhibition of PDE4B4 enzyme activity (PDE Glo Assay); format: biochemical; conditions: human recombinant PDE4B2, 50 nM cAMP; read-out: PDE4 IC50
T1 construct: purchased BPS Bioscience
Method: Biological Examples Inhibition of PDE4B4 Enzyme Activity
The inhibitory activity of test compounds were determined using the PDE Glo Assay (Promega, V1361). The PDE-Glo Reaction Buffer was prepared (1 mL 5× buffer+4 mL water) and 150 nM solution of test compound dissolved in the Reaction Buffer, followed by 1:3 serial dilutions into Reaction Buffer. […] Human recombinant PDE4B2 (BPS Bioscience) was added to test compound in Reaction Buffer at a concentration of 0.12 nM per reaction. The enzyme and test compound were pre-incubated together at rt for 10 min. 50 nM of the enzyme substrate cAMP was then added to initiate the enzyme reaction, with the reaction terminated after one hour. Termination Buffer (1 mL 5× termination buffer+3.9 mL water+100 μL of 100 mM IBMX (ICN Chemicals, in DMSO)), was added to each reaction well to terminate the reaction. Detection Buffer (1 mL 5×PDE-Glo Detection buffer+3.96 mL water+40 μL PKA (supplied in kit)) was added to the cAMP-enzyme-test compound mix and this secondary reaction proceeded for 20 minutes at rt. An equal volume of Kinase Glo Reagent was then added to the reaction mixture and after 10 min luminescence was measured using a luminometer (EnVision, 0.1 sec read for luminescence). Luminescence values were […] related to levels of cAMP in the reaction mixture. Data were plotted as relative light units (RLU) versus test compound concentration and the IC50 determined using GraphPad Prism 5.0, using a nonlinear curve fit in a single-site binding model.
IC50 determinations for the compounds presented above are seen in the first column of Table 1 (PDE4IC50).

[1] = target: T2, human recombinant beta-2 adrenoreceptors (Homo sapiens, UniProt P07550); test: Beta-2 adrenoceptor binding assay ([3H](−)CGP-12177 displacement); conditions: CHO cells expressing human beta-2 adrenoreceptors, [3H](−)CGP-12177 0.3 nM, 120 min
T2 construct: expressed in transfected cells; host or cells: CHO cells
Method: Beta-2 Adrenoceptor Binding Assay
Test compounds were incubated for 120 min with Chinese hamster oocyte (CHO) cells expressing the human recombinant beta-2 adrenoreceptors. Binding of test compounds to the beta-2 adrenoreceptors was determined by measuring the displacement of the radiolabeled ligand [^3H](−)CGP-12177 (0.3 nM) from the receptor measured by a scintillation counting. Concentration response curves were generated for test compounds and the IC50 (molar concentration of the compound which produced 50% inhibition for the maximal response for that compound) was determined. These assays were performed using a protocol based on the original description of the assay by Joseph et al., (2004) Naun.-Sch. Arch. Pharm.; 369:525-532.
IC50 determinations for the compounds presented above are seen in the second column of Table 1 (Beta 2 IC50).

[2] = target: T2, human recombinant beta-2 adrenoreceptors; test: Functional agonism of human recombinant beta-2 adrenoreceptors expressed in CHO cells (cAMP HTRF); format: cell-based; conditions: CHO cells expressing human beta-2 adrenoreceptors, cAMP elevation, 30 min
Method: Functional Agonism of Human Recombinant Beta-2 Adrenoreceptors Expressed in Chinese Hamster Oocytes (CHO)
Test compounds were incubated for 30 min with CHO cells expressing the human recombinant beta-2 adrenoreceptors. Agonism of the receptor was measured by the elevation of intracellular cyclic-AMP over control levels detected using a homogeneous time resolved fluorescence (HTRF) format. Compounds were determined to be “full” or “partial” agonists based on the maximum level of cAMP accumulated compared to the control compound isoproterenol which is a full agonist in this assay system. Concentration response curves were generated for test compounds and the EC50 (molar concentration of the agonist which produced 50% of the maximal response for that compound) was determined. These assays were performed using a protocol based on the original description of the assay by Baker, J. G. (2005) Brit. J. Pharmacol.; 144:317-322.
EC50 determinations for the compounds presented above are seen in the third column of Table 1 (Beta 2 EC50).

[3] = test system: LPS-induced TNF-α release from human peripheral blood mononuclear cells (PBMC); test: Inhibition of LPS-induced TNF-α release from human PBMC; format: cell-based; conditions: LPS 0.4 ng/mL, 6 h, presence or absence of ICI-118551 not given
Text: Inhibition of Lipopolysaccharide (LPS)-Induced Tumour Necrosis Factor Alpha (TNF-α) Release from Human Peripheral Blood Mononuclear Cells (PBMC)
Human whole blood was drawn from donors and cell purification initiated within two hours. Peripheral blood mononuclear cells (PBMC) were purified using a standard Ficoll gradient purification technique and aliquoted at a concentration of 100,000 cells/well in 96 well plates. Beta-2 adrenoreceptor agonists are also anti-inflammatory for some immune cells expressing the receptor and in this assay they can inhibit tumor necrosis factor-alpha (TNF-α) production. Therefore PBMC were pre-incubated for 30 min in the presence of the beta-2 adrenoreceptor antagonist ICI-118551 [3-(isopropylamino)-1-[(7-methyl-4-indanyl)oxy]butan-2-ol] (10 μM) to determine the PDE4 directed activity of test compounds, and in the absence of ICI-118551 for the combined PDE4 and beta-2 receptor directed activity. Test compounds were dissolved in DMSO and diluted in buffer (final DMSO concentration of 0.1% v/v) and were then added to the cell suspensions and pre-incubated for a further 1 h at 37° C. LPS solution was then added (0.4 ng/mL) and the cells incubated for a further 6 h. At the end of the incubation period the cell supernatants were collected and TNF-α was measured using a Procarta Cytokine Assay Kit (Affymetrix, Santa Clara, Calif.) according to the manufacturers' instructions. Data were analyzed using MiraiBio Masterplex QT v4.0 software (MasterPlex Version 1.0.1.18 Copyright 2008, Hitachi Software Engineering Co., Ltd) and used to extrapolate Mean Fluorescence Intensity (MFI) into concentrations of TNF-α and mean values from replicate wells were determined. Inhibition curves were plotted using a nonlinear curve fit employing a single-site binding model to determine the IC50 value for each test compound in the presence or absence of ICI-118551 using GraphPad Prism 5 for Windows, version 5.02 (GraphPad Software, San Diego Calif.).
EC50 determinations for the compounds presented above are seen in the fourth column of Table 1 (PBMC TNF EC50).

T1 sequence (Q07343 1-564 isoform Q07343-2): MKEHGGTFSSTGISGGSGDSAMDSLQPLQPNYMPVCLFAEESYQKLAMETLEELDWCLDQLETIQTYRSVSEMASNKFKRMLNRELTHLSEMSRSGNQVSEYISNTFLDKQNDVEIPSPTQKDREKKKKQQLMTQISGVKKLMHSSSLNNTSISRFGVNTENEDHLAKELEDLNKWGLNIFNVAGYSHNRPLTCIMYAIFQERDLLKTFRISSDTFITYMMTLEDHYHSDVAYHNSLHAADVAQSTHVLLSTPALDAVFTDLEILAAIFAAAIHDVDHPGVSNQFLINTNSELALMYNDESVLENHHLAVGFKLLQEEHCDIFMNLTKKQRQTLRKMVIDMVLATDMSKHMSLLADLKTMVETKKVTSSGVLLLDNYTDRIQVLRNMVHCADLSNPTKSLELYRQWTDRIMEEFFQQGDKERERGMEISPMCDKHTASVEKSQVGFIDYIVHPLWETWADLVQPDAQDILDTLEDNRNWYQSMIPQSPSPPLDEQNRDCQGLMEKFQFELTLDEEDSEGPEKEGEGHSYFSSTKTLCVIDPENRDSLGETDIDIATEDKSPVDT
T2 sequence (P07550 whole entry): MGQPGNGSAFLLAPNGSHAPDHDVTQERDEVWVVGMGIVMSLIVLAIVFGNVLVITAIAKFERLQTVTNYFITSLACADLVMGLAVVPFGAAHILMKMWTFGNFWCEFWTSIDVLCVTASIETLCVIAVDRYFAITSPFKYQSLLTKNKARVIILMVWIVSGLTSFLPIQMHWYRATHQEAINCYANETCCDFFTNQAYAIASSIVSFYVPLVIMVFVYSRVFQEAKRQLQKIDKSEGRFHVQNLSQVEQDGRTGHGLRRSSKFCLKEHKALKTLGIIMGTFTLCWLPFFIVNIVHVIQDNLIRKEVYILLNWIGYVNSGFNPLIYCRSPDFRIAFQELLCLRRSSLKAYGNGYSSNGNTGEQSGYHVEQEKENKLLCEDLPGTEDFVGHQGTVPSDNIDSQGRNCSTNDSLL

IC50 (Human recombinant PDE4B2) [nM] | IC50 [1] [nM] | EC50 [2] [nM] | Compound | EC50 [3] [nM]
< 100 | < 100 | < 100 | COc1cccc(Nc2c(C(N)=O)cnc3c(C)cc(S(=O)(=O)c4cccc(C(=O)NCCCCCCNC[C@H](O)c5ccc(O)c6[nH]c(=O)ccc56)c4)cc23)c1 [Example 2, (R)-6-[[3-[[6-[[2-Hydroxy-2-(8-hydroxy-2-oxo-1,2-dihydroquinolin-5-yl)ethyl]amino]hexyl]carbamoyl]phenyl]sulfonyl]-4-((3-methoxyphenyl)amino]-8-methylquinoline-3-carboxamide] | < 100
< 100 | > 300 | < 100 | COc1cccc(Nc2c(C(N)=O)cnc3c(C)cc(S(=O)(=O)c4cccc(C(=O)N5CCC(NC[C@H](O)c6ccc(O)c7[nH]c(=O)ccc67)CC5)c4)cc23)c1 [Example 3, (R)-6-[[3-[[4-[[2-Hydroxy-2-(8-hydroxy-2-oxo-1,2-dihydroquinolin-5-yl)ethyl]amino]piperidine-1-yl]carbonyl)phenyl]sulfonyl]-4-[(3-methoxyphenyl)amino]-8-methylquinoline-3-carboxamide] | < 100
< 100 | < 100 | < 100 | COc1cccc(Nc2c(C(N)=O)cnc3c(C)cc(S(=O)(=O)c4cccc(C(=O)Nc5ccc(C#CCCCCNC[C@H](O)c6ccc(O)c7[nH]c(=O)ccc67)cc5)c4)cc23)c1 [Example 7, (R)-6-((3-((4-(6-((2-hydroxy-2-(8-hydroxy-2-oxo-1,2-dihydroquinolin-5-yl)ethyl)amino)hex-1-yn-1-yl)phenyl)carbamoyl)phenyl)sulfonyl)-4-((3-methoxyphenyl)amino)-8-methylquinoline-3-carboxamide] | < 100
< 100 | > 300 | > 300 | COc1cccc(Nc2c(C(N)=O)cnc3c(C)cc(S(=O)(=O)c4cccc(C(=O)Nc5ccc(C#CCCCN(C)C[C@H](O)c6ccc(O)c7[nH]c(=O)ccc67)cc5)c4)cc23)c1 [Example 8, (R)-6-((3-((4-(5-((2-hydroxy-2-(8-hydroxy-2-oxo-1,2-dihydroquinolin-5-yl)ethyl)(methyl)amino)pent-1-yn-1-yl)phenyl)carbamoyl)phenyl)sulfonyl)-4-((3-methoxyphenyl)amino)-8-methylquinoline-3-carboxamide] | < 100
< 100 | < 100 | < 100 | COc1cccc(Nc2c(C(N)=O)cnc3c(C)cc(S(=O)(=O)c4cccc(C(=O)Nc5cccc(C#CCCCNC[C@H](O)c6ccc(O)c7[nH]c(=O)ccc67)c5)c4)cc23)c1 [Example 9, (R)-6-((3-((3-(5-((2-hydroxy-2-(8-hydroxy-2-oxo-1,2-dihydroquinolin-5-yl)ethyl)amino)pent-1-yn-1-yl)phenyl)carbamoyl)phenyl)sulfonyl)-4-((3-methoxyphenyl)amino)-8-methylquinoline-3-carboxamide] | < 100
< 100 | < 100 | < 100 | COc1cccc(Nc2c(C(N)=O)cnc3c(C)cc(S(=O)(=O)c4cccc(C(=O)Nc5ccc(CCCCCNC[C@H](O)c6ccc(O)c7[nH]c(=O)ccc67)cc5)c4)cc23)c1 [Example 10, (R)-6-[[3-[[4-[5-[[2-Hydroxy-2-(8-hydroxy-2-oxo-1,2-dihydroquinolin-5-yl)ethyl]amino]pentyl]phenyl]carbamoyl]phenyl]sulfonyl]-4-[(3-methoxyphenyl)amino]-8-methylquinoline-3-carboxamide 2,2,2-trifluoroacetate] | < 100
< 100 | < 100 | < 100 | COc1cccc(Nc2c(C(N)=O)cnc3c(C)cc(S(=O)(=O)c4cccc(C(=O)N5CCN(CCNC[C@H](O)c6ccc(O)c7[nH]c(=O)ccc67)CC5)c4)cc23)c1 [Example 11, 6-[3-[[4-[2-[[2-Hydroxy-2-(8-hydroxy-2-oxo-1,2-dihydroquinolin-5-yl)ethyl]amino]ethyl]piperazine-1-yl]carbonyl]benzenesulfonyl]-4-(3-methoxyphenylamino)-8-methylquinoline-3-carboxyamide] | < 100
< 100 | < 100 | < 100 | COc1cccc(Nc2c(C(N)=O)cnc3c(C)cc(S(=O)(=O)c4cccc(C(=O)Nc5ccc(CCNC[C@H](O)c6ccc(O)c7[nH]c(=O)ccc67)cc5)c4)cc23)c1 [Example 12, (R)-6-[[3-[[4-[2-[[2-Hydroxy-2-(8-hydroxy-2-oxo-1,2-dihydroquinolin-5-yl)ethyl]amino]ethyl]phenyl]carbamoyl]phenyl]sulfonyl]-4-[(3-methoxyphenyl)amino]-8-methylquinoline-3-carboxamide] | < 100
< 100 | < 100 | < 100 | COc1cccc(Nc2c(C(N)=O)cnc3c(C)cc(S(=O)(=O)c4cccc(CN(C)C(=O)c5cccc(CC(C)NC[C@H](O)c6ccc(O)c7[nH]c(=O)ccc67)c5)c4)cc23)c1 (stereo partly drawn) [Example 13, 6-[[3-[[3-[2-[[(R)-2-Hydroxy-2-(8-hydroxy-2-oxo-1,2-dihydroquinolin-5-yl)ethyl]amino]propyl]-N-methylbenzamido]methyl]phenyl]sulfonyl]-4-[(3-methoxyphenyl)amino]-8-methylquinoline-3-carboxamide] | < 100
< 100 | > 300 | > 300 | COc1cccc(Nc2c(C(N)=O)cnc3c(C)cc(S(=O)(=O)c4cccc(C(=O)N(C)CCCCCCNC[C@H](O)c5ccc(O)c6[nH]c(=O)ccc56)c4)cc23)c1 [Example 14] | < 100
< 100 | < 100 | < 100 | COc1cccc(Nc2c(C(N)=O)cnc3c(C)cc(S(=O)(=O)c4cccc(C(=O)N5CCC(OCCCCCCNC[C@H](O)c6ccc(O)c7[nH]c(=O)ccc67)CC5)c4)cc23)c1 [Example 15, (R)-6-((3-(4-((6-((2-hydroxy-2-(8-hydroxy-2-oxo-1,2-dihydroquinolin-5-yl)ethyl)amino)hexyl)oxy)piperidine-1-carbonyl)phenyl)sulfonyl)-4-((3-methoxyphenyl)amino)-8-methylquinoline-3-carboxamide] | < 100

From patent publication US8394829B2, “Bi-functional quinoline analogs” (Gilead Sciences, Inc., priority 2010, dated 2013)
